Measurements reported in patent publication US10633409B2, “Bola-amphiphilic compounds and their uses for biomedical applications” (UNIVERSITE DE BORDEAUX, priority 2014, dated 2020).

Experiments:
[1] = Gelation test (tube inversion); assay type: physicochemical; conditions: aqueous dispersion 1.5 wt % in Milli-Q water, heated until dissolution (45° C.), cooled to room temperature
Method: The aqueous dispersions (Milli-Q water, 18 MΩ·cm^−1) containing 1.5 wt % of compounds 5 and 6 obtained in examples 1 and 2 were heated until dissolution (at 45° C.) and gradually allowed to cool to room temperature unless otherwise stated.

[2] = test system: human mesenchymal stem cells (ASCs); assay: Cytotoxicity by MTT test (cell metabolic activity); assay type: cell-based
Method: (§1) Mesenchymal stem cells were isolated from human adipose tissue. Human subcutaneous fat was obtained from healthy patients aged 20 to 80 years old who underwent hip surgery in Bordeaux Pellegrin CHU (Bordeaux, France). Fat mass was separated from other tissues, washed with sterilized PBS, finely cut and incubated with 0.1% (w/v) collagenase type I (Worthington, Lakewood, N.J., USA) at 37° C. with gentle agitation for 1 h 30. After filtration and centrifugation, the top liquid layer was removed and the remaining Stromal Vascular Fraction (SVF) was treated for 10 min with ELB (Erythocyte Lysis Buffer; 155 mM NH4Cl (Sigma-Aldrich, St. Louis, Mo., USA), 5.7 mM K2HPO4, 7.4 mM K2HPO4-3H2O, 0.1 mm EDTA (all Sigma-Aldrich)), and then centrifuged. […]
The cytotoxicity of compound 6 was evaluated by the measurement of the cell metabolic activity (MTT assay). […]
MTT assay was performed after 72 h of incubation. […] Results were expressed as a percentage of the metabolic activity of the positive control. Absorbance was measured at a wavelength of 570 nm with background subtraction at 630 nm.
The cytotoxicity of compound 6 was determined by MTT test to measure the metabolic activity of human mesenchymal stem cells (ASCs) 48 hours after incubation with increasing concentrations of compound 6. […]

[3] = test system: rat osteoblastic cells (A) or human ASCs (B); assay: Cytocompatibility by Alamar Blue metabolism in cells grown in compound 6-based gels; assay type: cell-based; conditions: compound 6-based gel 3% (w/v)
Method: as §1
Cell viability was also evaluated by using the Alamar Blue metabolic activity assay. […] After this time, the fluorescence was measured at wavelengths excitation 530 nm and emission 590 nm. Triplicate samples were analyzed for each experiment. […]
Cytocompatibility was determined by monitoring alamar blue metabolism in rat osteoblastic cells (A) or human ASCs (B) grown in compound 6-based gels. […]

[4] = Sol-gel transition temperature (Tgel) by rheology; assay type: physicochemical; conditions: hydrogel 3% w/v, heated from 25 to 60° C. (3° C./min), oscillatory stress 5 Pa, 1 Hz
Method: The determination of gel-sol transition temperature can also be determinated by rheology. The hydrogel (3% product 6 of example 2, w/v) was heated progressively from 25 to 60° C. (3° C./min). The oscillatory stress applied was set to 5 Pa at a constant frequency (1 Hz). The sol-gel transition point was taken as the temperature at which the gel became liquid. This melting temperature is reached at the intersection of the viscoelastic moduli (G′ and G″). This value is of 46° C. which is compatible with the cell culture at the gel state (37° C.).

hASCs or D1 = assay: Live/Dead staining (calcein-AM, ethidium homodimer) of cells seeded within gels; assay type: cell-based; conditions: cells seeded within gel 3% (w/v), at 2 weeks
Method: For all in vitro assays, the hydrogel obtained from compound 6 was prepared at a concentration of 3% (w/v). The compound 6 powder was solubilized in PBS 1× under agitation (900 rpm) at 25° C. during 45 minutes. Then, when the gel was formed, it was left at room temperature, without agitation, during 3 to 4 hours. To allow cell seeding, the gel was heated during 30 minutes at 55° C. Once the liquid solution was obtained, it was rapidly cooled down to 37° C. and thoroughly mixed with 10 μL cell suspension at a concentration of 1 million cells per mL of gel. Finally, the cellularized hydrogel was maintained under agitation (600 rpm), at 25° C. during 45 minutes. After this period, medium was been added (250 μL/tube) and tubes were incubated at controlled atmosphere (5% CO2, 37° C.)
[…] Cells seeded within gels were incubated for 1 h at 37° C. in Hank's medium supplemented with 1.25 μL calcein-AM and 5 μL EthD-1.

Row | SMILES | gel formation (solid aggregate mass stable to inversion of the container) [1] | concentrations up to which the compound is non toxic ([2]; MTT, human ASCs, tested 5 μM to 5 mM, value printed as approximate) | cytotoxicity (result in words) ([2]; summary of example 12) | cytocompatibility when used as cell culture medium [3] | sol-gel transition temperature (Tgel), intersection of G′ and G″ [4] | Live/dead staining result (hASCs or D1)
1 | Cc1cn([C@H]2C[C@H](O)[C@@H](Cn3cc(COCCCCCCCCCCCCOCc4cn(C[C@H]5O[C@@H](n6cc(C)c(=O)n(Cc7cn([C@@H]8O[C@H](CO)[C@@H](O)[C@H](O)[C@H]8O)nn7)c6=O)C[C@@H]5O)nn4)nn3)O2)c(=O)n(Cc2cn([C@@H]3O[C@H](CO)[C@@H](O)[C@H](O)[C@H]3O)nn2)c1=O [compound 6] | form gels | ≤ 1000 µM | not cytotoxic | god cytocompatibility | 46 °C | vast majority of green (living) cells
2 | Cc1cn([C@H]2C[C@H](O)[C@@H](Cn3cc(COCCCCCCCCCCCCO)nn3)O2)c(=O)n(Cc2cn([C@@H]3O[C@H](CO)[C@@H](O)[C@H](O)[C@H]3O)nn2)c1=O [compound 5, 5′-[4-(12-hydroxydodecanyloxy)methyl)-1H-1,2,3-triazol-1-yl]-5′-deoxy-N3-(1-((β-D-glucopyranoside)-1H-1,2,3-triazol-4-yl)methyl thymidine] | form gels | – | – | – | – | –
